Laboratory results reported in patent US10253300B2, “Adapted rhinovirus C” (Wisconsin Alumni Research Foundation, priority 2015, dated 2019).
“Also recorded” adds a separate entry of the source.

What was measured:
C15a [1] = assay: Inhibition of virus binding and replication by preincubation with heparin, HS or glycans: C15a; format: cell-based, rhinovirus C; conditions: for inhibition of virus binding to HeLa-E8 cells: heparin or HS 1-2 mg/ml preincubation
Procedure: (§1) FIGS. 4A-4E—Heparin and heparan sulfate effects. (A) Virus samples (5×10^5 PFUe) were incubated with heparin (2 mg/ml) or medium alone (no heparin) for 30 min at 34° C., before inoculation of HeLa-E8 cells. After an attachment period (30 min at room temp, 30 min at 34° C.) the cells were washed (3×PBS), harvested and tested by RT-qPCR for the attached virus RNA signals (means±s.d., n≥3). (*) indicates p<0.05 significance (t-test). (B) C15a and C15 K125 (5×10^5 PFUe) were incubated with heparin or heparan sulfate (1 mg/ml) as in A, before HeLa-E8 infections and virus binding assays. (C) The C15a experiment in A was repeated using different doses of heparin in the preincubation. (D) HeLa-E8 cells (12 well-plates) were treated (37° C., 2 h) with the indicated dose (U) of heparinase I before inoculation with C15a virus (5×10^5 PFUe) and tested for virus binding as in A. (E) C15a and recombinant C15 K125/K41 viruses (5×10^5 PFUe) were incubated with heparin (1 mg/ml, 30 min, 34° C.) before inoculation of HeLa-E8 or HeLa-H1 cells. After an attachment period (30 min at room temp, 30 min at 34° C.), the cells were washed with PBS (3×). Cells were harvested and assayed for the attached virus (1 h p.i.) and progeny virus (24 h p.i.) RNA signals by RT-qPCR (means±s.d., n=3).
FIGS. 9A-9B—Glycan effects on virus binding assays. (A) Recombinant C15 or (B) polyclonal C15a were incubated in media with the indicated sialylated glycans (1 mg/ml, see below) before being tested for binding to HeLa-E8 cells. Virus (5×10^5 PFUe) and glycan were mixed (30 min, 34° C.), then added to plated cells (30 min, room temp), before the samples were again incubated at 34° C. for an additional 30 min. The cells were washed (3×) before total RNA was extracted and assayed for C15 titer by RT-qPCR. For SNA and MALII samples, the cells, rather than virus were pretreated (100 μg/ml for 30 min, room temp) before the virus addition step. The plotted values are the averages of duplicate samples (n=2). Glycan reagents include: SLN 2-3 (3′-Sialy-N-acetyllactosamine, V-Labs, Inc), 1 mg/ml; SLN 2-6 (6′-Sialy-N-acetyllactosamine, V-Labs, Inc), 1 mg/ml; SLN 2-8 (Neu5Ac2-8Neu5Ac2-8Neu5Ac-sp-biotin, GlycoTech), 1 mg/ml; GlcNac 1-4 (GlcNAcb1-4GlcNAcb-sp-biotin, GlycoTech), 1 mg/ml; SNA (Sambucus Nigra Lectin, Vector Laboratories), 100 μg/ml; MAUI (Maackia Amurensis Lectin, Vector Laboratories), 100 μg/ml.
(§2) Purified virus (5×10^5 PFUe) was pre-incubated with tested compounds (sialic acid and sugar di- or trisaccharides, heparin or HS) for 30 min at 34° C. before inoculation of HeLa cell monolayers (30 min, room temp; 30 min, 34° C.). Cells were washed three times with PBS, lysed with the RLT buffer (Qiagen) and stored at −80° C. before total RNA extraction and RT-qPCR for C15. For SNA and MAUI samples, the cells, rather than virus were pretreated (100 μg/ml for 30 min, room temp) before the virus addition step. HeLa-E8 cells were washed with PBS containing 1 mM MgCl2 and 1 mM CaCl2 (PBS^++) and incubated for 2 hours at 37° C. with 2.5-10 U of heparinase I in PBS^++ before inoculation with purified virus (10^6 PFUe) for 1 hour at 34° C.

C15 K125 = assay: Inhibition of virus binding by preincubation with heparin or HS: C15 K125; format: cell-based, rhinovirus C; conditions: for inhibition of virus binding to HeLa-E8 cells: heparin or HS 1-2 mg/ml preincubation
Procedure: as §1, §2

A16 = assay: Inhibition of virus binding by preincubation with heparin: A16; format: cell-based, RV-A; conditions: heparin 2 mg/ml preincubation
Procedure: as §1, with “n=3). […]” for “n=3).”

unadapted C15 virus = assay: Inhibition of virus binding by preincubation with heparin: unadapted C15; format: cell-based, rhinovirus C; conditions: heparin 2 mg/ml preincubation
Procedure: as §1, with “n=3). […]” for “n=3).”

recombinant C15 K125/K41 = assay: Inhibition of virus binding and replication by preincubation with heparin: recombinant C15 K125/K41; format: cell-based, rhinovirus C; conditions: heparin 1 mg/ml
Procedure: as §1, with “n=3). […]” for “n=3).”

Ala viruses = assay: Inhibition of virus binding by preincubation with heparin: Ala; format: cell-based; conditions: heparin 2 mg/ml preincubation
Procedure: as §1, with “n=3). […]” for “n=3).”

RV-C15-K125 = assay: Heparinase I treatment, virus binding to HeLa-E8: RV-C15-K125; format: cell-based, rhinovirus C
Procedure: as §2
Receptor specificity switch has been documented for some major receptor group RVs (e.g. RV-A89) that were adapted for growth in ICAM-1-deficient cells by serial or alternate passages in HEp-2 and HeLa cells (Reischl et al., 2001; Vlasak et al., 2005). A HEp-2-adapted RV-A89 variant can utilize HS proteoglycans as a cellular receptor (Vlasak et al., 2005). […] In contrast to RV-A89, RV-C15 adaptation by passaging in HeLa cells occurred in the absence of selective pressure for binding specificity change. This process has also been observed in some other picornaviruses and alphaviruses (Sa-Carvalho et al., 1997; Klimstra et al., 1998; Smit et al., 2002). […]

C15a [2] = assay: Heparinase I pretreatment of HeLa-E8 cells, virus binding: C15a; format: cell-based, rhinovirus C
Procedure: as §1, with “n=3). […]” for “n=3).”

[3] = heparin 2 mg/ml, 30 min 34° C. preincubation, 5×10^5 PFUe, HeLa-E8

Row | Substance | inhibition of virus binding to HeLa-E8 cells (C15a [1]) | inhibition of virus binding to HeLa-E8 cells (C15 K125) | effect of heparin on virus interaction with HeLa-E8 cells (A16) | dose dependence of inhibition of binding (C15a [1]; different doses of heparin in the preincubation, HeLa-E8) | effect of heparin on binding and replication in HeLa-H1 cells (C15a [1]; heparin 1 mg/ml, 1 h and 24 h p.i.) | replication in HeLa-E8 cells despite the heparin treatment (C15a [1]; heparin 1 mg/ml, 24 h p.i.) | reduction of binding titer by heparin (C15a [1]; [3]) [fold] | effect of heparin on virus interaction with HeLa-E8 cells (unadapted C15 virus) | effect of heparin on binding and replication in HeLa-H1 cells (recombinant C15 K125/K41; 1 h and 24 h p.i.) | replication in HeLa-E8 cells despite the heparin treatment (recombinant C15 K125/K41; 24 h p.i.) | reduction of binding titer by heparin (C15 K125; [3]) [fold] | effect of heparin on virus interaction with HeLa-E8 cells (Ala viruses) | inhibition of virus binding to HeLa-E8 cells (RV-C15-K125) | reduction of C15a binding after heparinase I pretreatment of HeLa-E8 cells (C15a [2]; 2.5-10 U heparinase I, 37° C., 2 h) | inhibition of virus binding to HeLa-E8 cells (C15a [2]; heparinase I treatment)
1 | heparan sulfate [HS] | had this effect; also recorded: inhibited | had this effect; also recorded: inhibited | – | – | – | – | – | – | – | – | – | – | – | – | –
2 | heparin | inhibited | inhibited | not affected | dependent upon the dose | abolished | still replicated (to a degree) | 17 | not affected | abolished | still replicated (to a degree) | 44 | not affected | – | – | –
3 | heparinase I | – | – | – | – | – | – | – | – | – | – | – | – | inhibited | more than 7 fold | inhibited
